# ChEMBL document CHEMBL1201862, “PubChem BioAssay data set” (2004)
#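 All cell lines were grown in 96-well plates and treated with compound for 48 hours. GI50: concentration for 50% inhibition of growth.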 Active and inactive are the calls of the source. No stated cut-off is given here; in the data, active = GI50 up to about 1.1 µM and inactive = higher.
# Columns and labels:
# Assay in all cases: DTP human tumour cell line panel, 48 h
# KM12 = tested on: KM12
# HL-60 = tested on: HL-60
# OVCAR-3 = tested on: OVCAR-3
# SK-MEL-5 = tested on: SK-MEL-5
# HCC 2998 = tested on: HCC 2998
# NCI-H522 = tested on: NCI-H522
# UACC-257 = tested on: UACC-257
# TK-10 = tested on: TK-10
# SN12C = tested on: SN12C
# NCI/ADR-RES = tested on: NCI/ADR-RES
# UO-31 = tested on: UO-31
# SNB-19 = tested on: SNB-19
# M14 = tested on: M14
# SF-268 = tested on: SF-268
# SR = tested on: SR
# UACC-62 = tested on: UACC-62
# SF-295 = tested on: SF-295
# SF-539 = tested on: SF-539
# EKVX = tested on: EKVX
# NCI-H23 = tested on: NCI-H23
SMILES,GI50 (KM12),GI50 (HL-60),GI50 (OVCAR-3),GI50 (SK-MEL-5),GI50 (HCC 2998),GI50 (NCI-H522),GI50 (UACC-257),GI50 (TK-10),GI50 (SN12C),GI50 (NCI/ADR-RES),GI50 (UO-31),GI50 (SNB-19),GI50 (M14),GI50 (SF-268),GI50 (SR),GI50 (UACC-62),GI50 (SF-295),GI50 (SF-539),GI50 (EKVX),GI50 (NCI-H23)
Oc1cccc(Nc2cc(O)nc(O)n2)c1,> 100 µM (inactive),> 100 µM (inactive),> 100 µM (inactive),> 100 µM (inactive),> 100 µM (inactive),> 100 µM (inactive),> 100 µM (inactive),> 100 µM (inactive),> 100 µM (inactive),> 100 µM (inactive),> 100 µM (inactive),> 100 µM (inactive),> 100 µM (inactive),> 100 µM (inactive),> 100 µM (inactive),> 100 µM (inactive),> 100 µM (inactive),> 100 µM (inactive),> 100 µM (inactive),> 100 µM (inactive)
O=[N+]([O-])/C(Cl)=C(/C(Cl)=C(Cl)Cl)N1CCOCC1,3.34 µM (inactive),2.28 µM (inactive),2.13 µM (inactive),1.65 µM (inactive),3.09 µM (inactive),2 µM (inactive),2.99 µM (inactive),3.49 µM (inactive),7.43 µM (inactive),3.29 µM (inactive),6.1 µM (inactive),17.6 µM (inactive),2.36 µM (inactive),6.41 µM (inactive),2.21 µM (inactive),1.92 µM (inactive),11.5 µM (inactive),3.12 µM (inactive),6.53 µM (inactive),2.24 µM (inactive)
CCOc1cc(NC(C)=O)ccc1C(=O)NN1C(=O)CSC1c1ccccc1 (stereo not given),71.4 µM (inactive),33.5 µM (inactive),96.6 µM (inactive),34.4 µM (inactive),> 100 µM (inactive),43.2 µM (inactive),63.8 µM (inactive),48.8 µM (inactive),> 100 µM (inactive),35.7 µM (inactive),40.7 µM (inactive),> 100 µM (inactive),> 100 µM (inactive),> 100 µM (inactive),9.86 µM (inactive),52 µM (inactive),45.2 µM (inactive),> 100 µM (inactive),91 µM (inactive),66.7 µM (inactive)
CC(C)OC(=O)C1=C2c3ncccc3C(=O)N2[C@@H](Cl)[C@H](Cl)[C@H]1Cl,> 100 µM (inactive),38.2 µM (inactive),> 100 µM (inactive),83 µM (inactive),> 100 µM (inactive),26.2 µM (inactive),34 µM (inactive),> 100 µM (inactive),21.8 µM (inactive),> 100 µM (inactive),> 100 µM (inactive),> 100 µM (inactive),> 100 µM (inactive),47.9 µM (inactive),26.5 µM (inactive),> 100 µM (inactive),> 100 µM (inactive),> 100 µM (inactive),> 100 µM (inactive),46.2 µM (inactive)
COC(=O)c1cc(C)ccc1CC(Cc1ccc(C)cc1)C(=O)OC (stereo not given),10.8 µM (inactive),4.37 µM (inactive),> 100 µM (inactive),3.48 µM (inactive),25.8 µM (inactive),7.06 µM (inactive),9.89 µM (inactive),> 100 µM (inactive),> 65.5 µM (inactive),23.7 µM (inactive),17.1 µM (inactive),> 100 µM (inactive),20.9 µM (inactive),7.52 µM (inactive),7.71 µM (inactive),> 100 µM (inactive),27.3 µM (inactive),27.5 µM (inactive),11.1 µM (inactive),9.4 µM (inactive)
Nc1ccccc1CCN1CCN(CCCc2ccccc2)CC1,52.1 µM (inactive),17.8 µM (inactive),> 100 µM (inactive),17.9 µM (inactive),19.4 µM (inactive),39.2 µM (inactive),32.5 µM (inactive),91.2 µM (inactive),87.7 µM (inactive),90.4 µM (inactive),27.3 µM (inactive),> 100 µM (inactive),17.3 µM (inactive),99.5 µM (inactive),25.7 µM (inactive),84.3 µM (inactive),45.4 µM (inactive),39.2 µM (inactive),> 100 µM (inactive),> 100 µM (inactive)
CC1CN=C(Nc2cccc(F)c2)S1 (stereo not given),> 100 µM (inactive),> 100 µM (inactive),> 100 µM (inactive),> 100 µM (inactive),> 100 µM (inactive),> 100 µM (inactive),> 100 µM (inactive),> 100 µM (inactive),> 100 µM (inactive),> 100 µM (inactive),> 100 µM (inactive),> 100 µM (inactive),> 100 µM (inactive),> 100 µM (inactive),7.87 µM (inactive),> 100 µM (inactive),> 100 µM (inactive),> 100 µM (inactive),> 100 µM (inactive),> 100 µM (inactive)
CC1=C2NCN(C)N=C2C(C#N)(C#N)C1(C#N)C#N,> 65.9 µM (inactive),1.93 µM (inactive),20.4 µM (inactive),27.4 µM (inactive),21 µM (inactive),8.87 µM (inactive),17 µM (inactive),16.4 µM (inactive),19.5 µM (inactive),28.6 µM (inactive),18.4 µM (inactive),36.9 µM (inactive),23.8 µM (inactive),32.2 µM (inactive),6.49 µM (inactive),20.8 µM (inactive),> 100 µM (inactive),27 µM (inactive),26 µM (inactive),14.1 µM (inactive)
CC(C)CCOC(=O)NC(Nc1ccc(F)cc1)(C(F)(F)F)C(F)(F)F,5.98 µM (inactive),12.9 µM (inactive),37.4 µM (inactive),12.6 µM (inactive),21.7 µM (inactive),25.8 µM (inactive),> 100 µM (inactive),29.7 µM (inactive),36.1 µM (inactive),52.6 µM (inactive),10.7 µM (inactive),62.2 µM (inactive),6.62 µM (inactive),34.1 µM (inactive),0.679 µM (active),0.279 µM (active),> 100 µM (inactive),16.1 µM (inactive),60.7 µM (inactive),33.4 µM (inactive)
CCCC(=O)NC(Nc1cc(C)ccn1)(C(=O)OCC)C(F)(F)F (stereo not given),> 100 µM (inactive),> 100 µM (inactive),> 100 µM (inactive),> 100 µM (inactive),> 100 µM (inactive),> 100 µM (inactive),> 100 µM (inactive),> 100 µM (inactive),> 100 µM (inactive),> 100 µM (inactive),> 100 µM (inactive),> 100 µM (inactive),> 100 µM (inactive),> 100 µM (inactive),> 100 µM (inactive),> 100 µM (inactive),> 100 µM (inactive),> 100 µM (inactive),> 100 µM (inactive),> 100 µM (inactive)
